Assays:
[1] = target: T1, Human recombinant serotonin 5-HT2A receptors (Homo sapiens, UniProt P28223); assay: 5-HT2A receptor radioligand binding inhibition ([3H]Ketanserin); conditions: for selectivity as ligand of the 5-HT2A receptor, in words: conclusion from % inhibition at 10 μM over ten receptors; for inhibition at 10 µM: screened at 10 μM, mean of two replicates; for interaction at 5-HT2A receptor, in words: 10 μM, % inhibition greater than 50% interpreted as potentially significant interaction
T1 construct: expressed in transfected cells; host or cells: CHO-K1
Description: (§1) Four novel LSD derivatives according to the present invention (referred to as “Compound 1”, “Compound 2”, “Compound 3”, and “Compound 4”; structures depicted below) were screened at 10 μM at key receptors of interest in order to determine % binding inhibition. Targets were selected due to prior evidence that LSD binds these targets with moderate or high affinities in vitro, as well as their functional significance in the context of human health.
Human recombinant serotonin 5-HT2A receptors expressed in CHO-K1 cells were used in modified Tris-HCl buffer pH 7.4. A 30 μg aliquot of membrane protein was incubated with 0.5 nM [^3H]Ketanserin for 60 minutes at 25° C. Non-specific binding was estimated in the presence of 1 μM Mianserin. Receptors were filtered and washed, the filters were then counted to determine [^3H]Ketanserin specifically bound. Test compounds were screened at 10 μM.
(§2) Experimental results were expressed as a percent of control specific binding, via the equation: […]
(§3) For each target, data from two experimental replicates were averaged to generate a mean % inhibition.

[2] = target: T2, Human recombinant serotonin 5-HT2B receptor (Homo sapiens, UniProt P41595); assay: 5-HT2B receptor radioligand binding inhibition ([3H]LSD); conditions: for inhibition at 10 µM: screened at 10 μM, mean of two replicates
T2 construct: expressed in transfected cells; host or cells: CHO-K1
Description: as §1
Human recombinant serotonin 5-HT2B receptor expressed in CHO-K1 cells were used to prepare membranes in modified Tris-HCl buffer pH 7.4. A 30 μg aliquot of membrane protein was incubated with 1.2 nM [^3H]LSD for 60 minutes at 37° C. Non-specific binding was estimated in the presence of 10 μM serotonin. Membranes were filtered and washed, the filters were then counted to determine [^3H]LSD specifically bound. Test compounds were screened at 10 μM.
as §2, §3

[3] = target: T3, human recombinant serotonin 5-HT2c receptors (Homo sapiens, UniProt P28335); assay: 5-HT2C receptor radioligand binding inhibition ([3H]Mesulergine); conditions: for inhibition at 10 µM: screened at 10 μM, mean of two replicates; for interaction at 5-HT2C receptor, in words: 10 μM, % inhibition greater than 50% interpreted as potentially significant interaction
T3 construct: expressed in transfected cells; host or cells: CHO-K1 (stably transfected)
T3 sequence (P28335 33-458): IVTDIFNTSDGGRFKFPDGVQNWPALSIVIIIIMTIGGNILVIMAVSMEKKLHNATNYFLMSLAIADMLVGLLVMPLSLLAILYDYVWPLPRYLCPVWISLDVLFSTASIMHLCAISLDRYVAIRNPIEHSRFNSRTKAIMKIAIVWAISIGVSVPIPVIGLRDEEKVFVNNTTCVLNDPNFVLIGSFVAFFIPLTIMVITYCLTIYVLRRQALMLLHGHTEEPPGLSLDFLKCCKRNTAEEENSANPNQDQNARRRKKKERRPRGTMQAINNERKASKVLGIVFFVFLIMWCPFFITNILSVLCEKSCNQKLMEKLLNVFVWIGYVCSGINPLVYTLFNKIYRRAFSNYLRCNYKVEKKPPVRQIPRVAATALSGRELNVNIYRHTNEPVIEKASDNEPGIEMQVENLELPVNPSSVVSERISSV
Description: as §1
CHO-K1 cells stably transfected with a plasmid encoding the human recombinant serotonin 5-HT2c receptors were used to prepare membranes in modified Tris-HCl buffer pH 7.4. A 3.2 μg aliquot of membrane protein was incubated with 1.0 nM [^3H]Mesulergine for 60 minutes at 25° C. Non-specific binding was estimated in the presence of 1 μM Mianserin. Membranes were filtered and washed, the filters were then counted to determine [^3H]Mesulergine specifically bound. Test compounds were screened at 10 μM.
as §2, §3

[4] = target: T4, Human recombinant serotonin 5-HT1A receptors (Homo sapiens, UniProt P08908); assay: 5-HT1A receptor radioligand binding inhibition ([3H]8-OH-DPAT); conditions: for inhibition at 10 µM: screened at 10 μM, mean of two replicates; for interaction at 5-HT1A receptor, in words: 10 μM, % inhibition greater than 50% interpreted as potentially significant interaction
T4 construct: expressed in transfected cells; host or cells: CHO-K1
T4 sequence (P08908 1-422): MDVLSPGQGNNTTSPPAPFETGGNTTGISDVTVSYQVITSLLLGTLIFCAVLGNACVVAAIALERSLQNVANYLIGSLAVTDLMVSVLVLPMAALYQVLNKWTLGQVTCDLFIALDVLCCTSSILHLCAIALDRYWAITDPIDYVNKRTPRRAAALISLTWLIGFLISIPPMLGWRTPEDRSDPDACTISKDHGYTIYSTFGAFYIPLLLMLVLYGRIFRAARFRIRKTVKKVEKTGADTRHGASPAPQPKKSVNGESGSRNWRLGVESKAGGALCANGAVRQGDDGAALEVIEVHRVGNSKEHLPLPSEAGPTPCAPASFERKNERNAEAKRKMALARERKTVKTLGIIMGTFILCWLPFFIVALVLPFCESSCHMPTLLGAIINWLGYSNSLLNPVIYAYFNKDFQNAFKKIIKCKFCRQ
Description: as §1
Human recombinant serotonin 5-HT1A receptors expressed in CHO-K1 cells were used in modified Tris-HCl buffer pH 7.4. An 8 μg aliquot of membrane protein was incubated with 1.5 nM [^3H]8-OH-DPAT for 60 minutes at 25° C. Non-specific binding was estimated in the presence of 10 μM metergoline. Receptors were filtered and washed, the filters were then counted to determine [^3H]8-OH-DPAT specifically bound. Test compounds were screened at 10 μM.
as §2, §3

[5] = target: T5, Human recombinant dopamine D2S receptors (Homo sapiens, UniProt P14416); assay: D2S receptor radioligand binding inhibition ([3H]Spiperone); conditions: for inhibition at 10 µM: screened at 10 μM, mean of two replicates
T5 construct: expressed in transfected cells; host or cells: CHO
Description: as §1
(§4) Human recombinant dopamine D2S receptors expressed in CHO cells were used in modified Tris-HCl buffer pH 7.4. A 15 μg aliquot was incubated with 0.16 nM [^3H]Spiperone for 120 minutes at 25° C. Non-specific binding was estimated in the presence of 10 μM haloperidol. Receptors were filtered and washed, the filters were then counted to determine [^3H]Spiperone specifically bound. Test compounds were screened at 10 μM.
as §2, §3

[6] = target: T6, Human recombinant dopamine D2L receptor (Homo sapiens, UniProt P14416); assay: D2L receptor radioligand binding inhibition ([3H]Spiperone); conditions: for inhibition at 10 µM: screened at 10 μM, mean of two replicates
T6 construct: expressed in transfected cells; host or cells: CHO
Description: as §1
as §4, with “D2L receptor” for “D2S receptors”, “20” for “15”, “Receptor proteins” for “Receptors”
as §2, §3

[7] = target: T7, Human recombinant dopamine D1 receptors (Homo sapiens, UniProt P21728); assay: D1 receptor radioligand binding inhibition ([3H]SCH-23390); conditions: for inhibition at 10 µM: screened at 10 μM, mean of two replicates
T7 construct: expressed in transfected cells; host or cells: CHO
Description: as §1
as §4, with “D1” for “D2S”, “20” for “15”, “1.4” for “0.16”, “[^3H]SCH-23390” for “[^3H]Spiperone”, “37°” for “25°”, “(+)-butaclamol.” for “haloperidol.”
as §2, §3

[8] = target: T8, Human recombinant dopamine D3 receptors (Homo sapiens, UniProt P35462); assay: D3 receptor radioligand binding inhibition ([3H]Spiperone); conditions: for inhibition at 10 µM: screened at 10 μM, mean of two replicates
T8 construct: expressed in transfected cells; host or cells: CHO
Description: as §1
as §4, with “dopamine D3” for “dopamine D2S”, “A 10” for “A 15”, “with 0.7” for “with 0.16”, “at 37°” for “at 25°”, “of 25” for “of 10”, “μM S(−)-sulpiride.” for “μM haloperidol.”
as §2, §3

[9] = test system: human dopamine D4.7 receptor; assay: D4.7 receptor radioligand binding inhibition ([3H]Spiperone); conditions: for % inhibition, D4.7: screened at 10 μM, mean of two replicates; for interaction at D4.7 receptor, in words: 10 μM, % inhibition greater than 50% interpreted as potentially significant interaction
Description: as §1
CHO-K1 cells stably transfected with a plasmid encoding the human dopamine D4.7 receptor were used to prepare membranes in modified Tris-HCl buffer pH 7.4. A 60 μg aliquot of membrane was incubated with 1.5 nM [^3H]Spiperone for 120 minutes at 25° C. Non-specific binding was estimated in the presence of 10 μM haloperidol. Membranes were filtered and washed, the filters were then counted to determine [^3H]Spiperone specifically bound. Test compounds were screened at 10 μM.
as §2, §3

[10] = target: T9, Human recombinant adenosine A2A receptors (Homo sapiens, UniProt P29274); assay: A2A receptor radioligand binding inhibition ([3H]CGS-21680); conditions: for interaction at A2A receptor, in words: 10 μM, % inhibition greater than 50% interpreted as potentially significant interaction; for inhibition at 10 µM: screened at 10 μM, mean of two replicates
T9 construct: expressed in transfected cells; host or cells: HEK-293
Description: as §1
Human recombinant adenosine A2A receptors expressed in human HEK-293 cells were used in modified Tris-HCl buffer pH 7.4. A 15 μg aliquot was incubated with 50 nM [^3H]CGS-21680 for 90 minutes at 25° C. Non-specific binding was estimated in the presence of 50 μM NECA. Receptor were filtered and washed, the filters were then counted to determine [^3H]CGS-21680 specifically bound. Test compounds were screened at 10 μM.
as §2, §3

[11] = 10 μM, % inhibition greater than 50% interpreted as potentially significant interaction

T8 sequence (P35462 whole entry): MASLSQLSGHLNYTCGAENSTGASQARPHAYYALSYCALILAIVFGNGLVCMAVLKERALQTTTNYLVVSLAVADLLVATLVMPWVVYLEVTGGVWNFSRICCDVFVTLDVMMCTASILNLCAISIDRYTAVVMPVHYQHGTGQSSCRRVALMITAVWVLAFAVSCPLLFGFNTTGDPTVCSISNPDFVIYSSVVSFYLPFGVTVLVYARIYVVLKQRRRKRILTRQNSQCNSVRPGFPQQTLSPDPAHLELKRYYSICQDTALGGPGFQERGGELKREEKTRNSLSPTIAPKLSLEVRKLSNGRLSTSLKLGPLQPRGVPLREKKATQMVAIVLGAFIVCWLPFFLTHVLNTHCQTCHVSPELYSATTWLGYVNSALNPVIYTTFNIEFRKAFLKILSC
T6 sequence (P14416 whole entry): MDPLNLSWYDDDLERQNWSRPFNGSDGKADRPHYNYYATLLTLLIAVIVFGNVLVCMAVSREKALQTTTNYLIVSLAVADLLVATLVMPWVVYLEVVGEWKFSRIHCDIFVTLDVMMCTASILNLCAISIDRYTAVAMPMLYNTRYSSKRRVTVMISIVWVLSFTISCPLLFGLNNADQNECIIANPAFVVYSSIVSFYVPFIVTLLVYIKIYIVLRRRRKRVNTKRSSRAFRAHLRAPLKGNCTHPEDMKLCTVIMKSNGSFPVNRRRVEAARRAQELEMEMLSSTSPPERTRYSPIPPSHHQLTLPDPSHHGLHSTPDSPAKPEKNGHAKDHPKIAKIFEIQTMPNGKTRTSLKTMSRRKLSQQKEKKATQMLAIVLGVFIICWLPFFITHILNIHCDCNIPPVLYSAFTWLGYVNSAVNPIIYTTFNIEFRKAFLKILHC
T9 sequence (P29274 whole entry): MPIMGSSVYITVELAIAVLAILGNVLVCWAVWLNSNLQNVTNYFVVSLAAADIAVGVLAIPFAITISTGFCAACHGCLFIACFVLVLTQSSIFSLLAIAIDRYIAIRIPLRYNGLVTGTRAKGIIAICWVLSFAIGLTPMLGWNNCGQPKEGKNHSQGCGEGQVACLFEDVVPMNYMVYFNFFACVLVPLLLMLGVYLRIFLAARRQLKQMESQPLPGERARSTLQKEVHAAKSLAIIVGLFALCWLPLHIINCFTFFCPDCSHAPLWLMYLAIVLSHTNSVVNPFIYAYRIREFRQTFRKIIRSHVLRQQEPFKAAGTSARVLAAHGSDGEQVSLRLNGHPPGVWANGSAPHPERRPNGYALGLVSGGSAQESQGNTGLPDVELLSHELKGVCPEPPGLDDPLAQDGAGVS
T1 sequence (P28223 whole entry): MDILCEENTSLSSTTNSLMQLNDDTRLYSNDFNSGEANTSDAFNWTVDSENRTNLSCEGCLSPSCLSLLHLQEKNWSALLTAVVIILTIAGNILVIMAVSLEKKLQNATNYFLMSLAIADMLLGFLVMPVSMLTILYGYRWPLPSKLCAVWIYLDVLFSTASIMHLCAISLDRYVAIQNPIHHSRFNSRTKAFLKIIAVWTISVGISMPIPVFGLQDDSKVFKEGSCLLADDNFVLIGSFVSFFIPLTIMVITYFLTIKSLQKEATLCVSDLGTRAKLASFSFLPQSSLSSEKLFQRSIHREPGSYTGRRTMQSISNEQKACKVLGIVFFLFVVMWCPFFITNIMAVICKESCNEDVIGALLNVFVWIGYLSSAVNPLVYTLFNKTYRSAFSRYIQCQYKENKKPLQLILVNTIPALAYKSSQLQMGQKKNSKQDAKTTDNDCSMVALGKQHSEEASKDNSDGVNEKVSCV
T5 sequence (P14416 1-414 isoform P14416-2): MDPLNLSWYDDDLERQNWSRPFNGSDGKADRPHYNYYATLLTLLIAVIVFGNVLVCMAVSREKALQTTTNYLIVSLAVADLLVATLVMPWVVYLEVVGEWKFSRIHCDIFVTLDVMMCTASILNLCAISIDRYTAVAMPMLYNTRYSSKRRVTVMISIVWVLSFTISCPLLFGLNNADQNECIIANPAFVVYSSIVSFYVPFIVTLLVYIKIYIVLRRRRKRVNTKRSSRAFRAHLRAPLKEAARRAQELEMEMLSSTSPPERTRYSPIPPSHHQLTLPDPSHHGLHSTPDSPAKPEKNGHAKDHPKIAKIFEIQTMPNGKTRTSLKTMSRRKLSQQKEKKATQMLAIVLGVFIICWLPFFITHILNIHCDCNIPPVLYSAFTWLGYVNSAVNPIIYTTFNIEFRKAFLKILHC
T7 sequence (P21728 whole entry): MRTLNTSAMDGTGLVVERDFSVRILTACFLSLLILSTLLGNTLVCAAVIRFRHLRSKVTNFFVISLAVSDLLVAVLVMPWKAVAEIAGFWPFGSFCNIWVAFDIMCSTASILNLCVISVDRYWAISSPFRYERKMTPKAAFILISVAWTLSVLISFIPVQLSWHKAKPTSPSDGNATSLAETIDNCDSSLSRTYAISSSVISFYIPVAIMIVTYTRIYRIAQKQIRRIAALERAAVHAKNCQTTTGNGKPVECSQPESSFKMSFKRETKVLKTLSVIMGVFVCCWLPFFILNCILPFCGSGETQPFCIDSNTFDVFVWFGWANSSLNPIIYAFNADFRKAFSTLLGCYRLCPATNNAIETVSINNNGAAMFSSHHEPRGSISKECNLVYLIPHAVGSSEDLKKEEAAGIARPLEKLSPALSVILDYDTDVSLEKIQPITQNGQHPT
T2 sequence (P41595 whole entry): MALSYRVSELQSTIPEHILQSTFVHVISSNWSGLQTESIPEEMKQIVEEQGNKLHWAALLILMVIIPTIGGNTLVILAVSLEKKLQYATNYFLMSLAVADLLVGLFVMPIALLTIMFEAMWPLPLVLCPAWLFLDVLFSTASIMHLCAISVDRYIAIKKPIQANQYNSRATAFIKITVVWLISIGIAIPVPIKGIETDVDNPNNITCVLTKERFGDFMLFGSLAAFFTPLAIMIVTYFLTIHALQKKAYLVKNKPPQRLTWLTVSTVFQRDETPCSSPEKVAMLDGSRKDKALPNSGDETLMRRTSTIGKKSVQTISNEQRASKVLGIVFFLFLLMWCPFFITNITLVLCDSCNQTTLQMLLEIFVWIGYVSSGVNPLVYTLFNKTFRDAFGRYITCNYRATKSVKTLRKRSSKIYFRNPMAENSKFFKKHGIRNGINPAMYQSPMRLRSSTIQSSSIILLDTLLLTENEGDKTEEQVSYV

Row | Structure (SMILES) | selectivity as ligand of the 5-HT2A receptor, in words [1] | inhibition at 10 µM [1] [%] | inhibition at 10 µM [2] [%] | inhibition at 10 µM [3] [%] | inhibition at 10 µM [4] [%] | inhibition at 10 µM [5] [%] | inhibition at 10 µM [6] [%] | inhibition at 10 µM [7] [%] | inhibition at 10 µM [8] [%] | % inhibition, D4.7 [9] [%] | interaction at A2A receptor, in words [10] | inhibition at 10 µM [10] [%] | interaction at 5-HT2A receptor, in words [1] | interaction at 5-HT2C receptor, in words [3] | interaction at 5-HT1A receptor, in words [4] | interaction at D4.7 receptor, in words [9] | other results
1 | CCN(CCF)C(=O)C1C=C2c3cccc4[nH]cc(c34)CC2N(C)C1 (centres unmarked) [Compound 4, lysergic acid monofluoro diethylamide] | advantageously selective ligands of the 5-HT2A receptor | 97.1 | 97.9 | 100 | 100 | 92.1 | 92.7 | 97.1 | 97.7 | 71.6 | no significant interaction | 12.3 |  |  |  |  | 
2 | CN1CC(C(=O)NCC(F)(F)F)C=C2c3cccc4[nH]cc(c34)CC21 (centres unmarked) [Compound 3, lysergic acid mono-(trifluoroethyl)amide] | advantageously selective ligands of the 5-HT2A receptor | 93.1 | 94.9 | 89.4 | 101 | 64.2 | 63.1 | 53.8 | 94.7 | 20.1 | no significant interaction | -2 | significant interaction | significant interaction | significant interaction | no significant interaction | interaction at 5-HT2B receptor, in words [2, 11]: significant interaction; D3 % inhibition compared with other dopamine receptors, in words ([8]; 10 μM, may indicate greater selectivity for D3): higher % inhibition than at other dopamine receptors
3 | CN1CC(C(=O)N2CC3(COC3)C2)C=C2c3cccc4[nH]cc(c34)CC21 (centres unmarked) [Compound 1, 2-oxa-6-azaspiro[3.3]heptyl-lysergic acid amide] |  | 95.3 | 96.8 | 85.8 | 96.3 | 83.1 | 78.8 | 85.6 | 94.5 |  |  | -12.3 |  |  |  |  | 
4 | CCN(CC)C(=O)C1C=C2c3cccc4[nH]cc(c34)CC2N(CCF)C1 (centres unmarked) [Compound 2, 6-(2-mono-fluoro-ethyl)-6-nor-lysergic acid diethylamide] | advantageously selective ligands of the 5-HT2A receptor | 95.7 | 90.5 | 4.8 | 100 | 0.6 | 7.9 | 4.3 | 14.2 | 2.8 | no significant interaction | -2.5 | very high % inhibition | no significant interaction | very high % inhibition | no significant interaction | interaction at D2S receptor, in words [5, 11]: no significant interaction; interaction at D2L receptor, in words [6, 11]: no significant interaction; interaction at D1 receptor, in words [7, 11]: no significant interaction; interaction at D3 receptor, in words [8, 11]: no significant interaction
